Data reported in patent US20050107338A1, “Nutritional supplement enhancing mitochondrial function” (priority 2003, published 2005).

Experiments:
COX and SDH = COX and SDH levels in mitochondria of dosed rats; assay type: in vivo; conditions: daily dosing per Table 2, after one month, COX and SDH averaged, vs control group 7
Excerpt: A group of 154 rats are evenly divided between a control group and six study groups, resulting in 22 animals per group.
The change from baseline relative to the last study month in the levels of COX and SDH is compared among the seven study groups using one-way analysis of variance (ANOVA). The Dunnett t-test procedure is used to compare the control group to each of the six treatment groups. As a secondary analysis to evaluate for trends across time, repeated measures of ANOVA are to be used to compare the groups regarding the change in the COX and SDH levels over the three-month time intervals. […]
The assay for SDH measures the reduction of 2,6-dichlorophenolindophenol (DCPIP) when coupled to […] reduction of decylubiquinone (DB), monitoring the absorbance at 600 minus […] (extinction coefficient 19.1 mM^−1cm^−1) (Singer T P, 1976). The reduction of DCPIP is measured at 600 minus 520 nm in a 1 ml cuvette at 30° C. […] Antimycin A (2 μg/ml), rotenone (2 μg/ml), KCN (2 mM), and 50 μM DCPIP are added to the sample and the blank rate is recorded for 1 minute. The reaction is initiated by the addition of 50 uM DB and change in absorbance is monitored for 3 minutes.
The activity of cytochrome-c oxidase (COX) is measured by following the oxidation of reduced cytochrome c at 550 minus 540 nm (extinction coefficient 19.0 mM^−1 cm^−1) (Errede B, et al. 1996). […]

[1] = Age-related hearing loss in subjects treated separately with the compounds; assay type: in vivo; conditions: subjects treated separately with each compound
complex III = target: T1, complex III (Rattus norvegicus, UniProt P00159); conditions: by competition with coenzyme Q; cited from earlier work
T1 construct: decrease complex III activity in rat brain; host or cells: rat brain (mitochondria)

[2] = tested on: mitochondrial transcripts; conditions: pretreatment of senescent rats; time and dose-dependent; cited from earlier work

SMILES | increase in COX and SDH relative to the control group (COX and SDH) [%] | age-related hearing loss [1] | complex III activity in rat brain (complex III) | levels of mitochondrial transcripts [2]
O=C(O)CCCCC1CCSS1 (stereo not shown) [Study group 1, lipoic acid] | 10 | improvement |  | 
CC(=O)N[C@@H](CS)C(=O)O [Study group 2, N-acetyl cysteine, reference compound] | 15 |  |  | 
Oc1ccc(C=Cc2cc(O)cc(O)c2)cc1 [Study group 3, resveratrol] |  | improvement | decrease | 
CC(=O)O[C@H](CC(=O)[O-])C[N+](C)(C)C [acetyl-L-carnitine] |  | improvement |  | bring back the levels of mitochondrial transcripts to adult levels
